The values that follow come from patent US7173004B2, “Macrocyclic isoquinoline peptide inhibitors of hepatitis C virus” (Bristol-Myers Squibb Company, priority 2003, dated 2007).

Structures can show the parent of a compound that is named as a salt. A value given as a limit tells only on which side of the number the result lay.

In one assay the target is T1, HCV NS3/4A protease complex, BMS strain (genotype 1a) (UniProt P27958, C1454S/C1711G, species not given/STRAIN_BMS).
T1 construct: b1001: DNA encoding the recombinant HCV NS3/4A protease complex (amino acids 1027 to 1711) ... a three-lysine solubilizing tail was added at the 3′-end of the NS4A coding region; fused on or other part: Three-lysine solubilising tail at the C-terminus of NS4A; A His tag is implied by the pET21b vector and Ni-NTA purification
The assay is described as follows: Recombinant HCV NS3/4A protease complex FRET peptide assay, BMS strain. Particulars: NS3/4A BMS Strain; activity range classes. Format: biochemical. An excerpt:
Recombinant HCV NS3/4A Protease Complex FRET Peptide Assay
The purpose of this in vitro assay was to measure the inhibition of HCV NS3 protease complexes, derived from the BMS strain, H77C strain or J416S strain, as described below, by compounds of the present invention. This assay provides an indication of how effective compounds of the present invention would be in inhibiting HCV proteolytic activity.
Serum from an HCV-infected patient was obtained from Dr. T. Wright, San Francisco Hospital. An engineered full-length cDNA (compliment deoxyribonucleic acid) template of the HCV genome (BMS strain) was constructed from DNA fragments obtained by reverse transcription-PCR (RT-PCR) of serum RNA (ribonucleic acid) and using primers selected on the basis of homology between other genotype 1a strains. From the determination of the entire genome sequence, a genotype 1a was assigned to the HCV isolate according to the classification of Simmonds et al. (See P Simmonds, K A Rose, S Graham, S W Chan, F McOmish, B C Dow, E A Follett, P L Yap and H Marsden, J. Clin. Microbiol., 31(6), 1493–1503 (1993)). […] The infectious clones, H77C (1a genotype) and J4L6S (1b genotype) were obtained from R. Purcell (NIH) and the sequences are published in Genbank (AAB67036, see Yanagi, M., Purcell, R. H., Emerson, S. U. and Bukh, J. Proc. Natl. Acad. Sci. U.S.A. 94(16), 8738–8743 (1997); AF054247, see Yanagi, M., St Claire, M., Shapiro, M., Emerson, S. U., Purcell, R. H. and Bukh, J, Virology 244 (1), 161–172. (1998)).
The H77C and J4L6S strains were used for production of recombinant NS3/4A protease complexes. DNA encoding the recombinant HCV NS3/4A protease complex (amino acids 1027 to 1711) for these strains were manipulated as described by P. Gallinari et al. (see Gallinari P, Paolini C, Brennan D, Nardi C, Steinkuhler C, De Francesco R. Biochemistry. 38(17):5620–32, (1999)). Briefly, a three-lysine solubilizing tail was added at the 3′-end of the NS4A coding region. The cysteine in the P1 position of the NS4A-NS4B cleavage site (amino acid 1711) was changed to a glycine to avoid the proteolytic cleavage of the lysine tag. Furthermore, a cysteine to serine mutation was introduced by PCR at amino acid position 1454 to prevent the autolytic cleavage in the NS3 helicase domain. The variant DNA fragment was cloned in the pET21b bacterial expression vector (Novagen) and the NS3/4A complex was expressed in Escherichia coli strain BL21 (DE3) (Invitrogen) following the protocol described by P. Gallinari et al. (see Gallinari P, Brennan D, Nardi C, Brunetti M, Tomei L, Steinkuhler C, De Francesco R., J. Virol. 72(8):6758–69 (1998)) with modifications. Briefly, NS3/4A expression was induced with 0.5 mM Isopropyl β-D-1-thiogalactopyranoside (IPTG) for 22 hr at 20° C. A typical fermentation (10 L) yielded approximately 80 g of wet cell paste. The cells were resuspended in lysis buffer (10 mL/g) consisting of 25 mM N-(2-Hydroxyethyl)piperazine-N′-(2-Ethane Sulfonic acid) (HEPES), pH7.5, 20% glycerol, 500 mM Sodium Chloride (NaCl), 0.5% Triton-X100, 1 microgram/milliliter (“μg/mL”) lysozyme, 5 mM Magnesium Chloride (MgCl2), 1 ug/ml DnaseI, 5 mM β-Mercaptoethanol (βME), Protease inhibitor—Ethylenediamine Tetraacetic acid (EDTA) free (Roche), homogenized and incubated for 20 mins at 4° C. The homogenate was sonicated and clarified by ultra-centrifugation at 235000 g for 1 hr at 4° C. Imidazole was added to the supernatant to a final concentration of 15 mM and the pH adjusted to 8.0. The crude protein extract was loaded on a Nickel-Nitrilotriacetic acid (Ni-NTA) column pre-equilibrated with buffer B (25 mM HEPES, pH8.0, 20% glycerol, 500 mM NaCl, 0.5% Triton-X100, 15 mM imidazole, 5 mM βME). The sample was loaded at a flow rate of 1 mL/min. The column was washed with 15 column volumes of buffer C (same as buffer B except with 0.2% Triton-X100). The protein was eluted with 5 column volumes of buffer D (same as buffer C except with 200 mM Imidazole). […]
For orientation: IC50 means the concentration that inhibits the measured activity by half. Consider `COc1ccc2c(O[C@@H]3C[C@H]4C(=O)N[C@]5(C(=O)O)C[C@H]5/C=C\CCCO[C@H](C)[C@H](NC(=O)OC(C)(C)C)C(=O)N4C3)nccc2c1` [Compound 61], for which the IC50 was 500 to 5000 nM.
In the case of `COc1ccc2c(OC3CC4C(=O)NC5(C(=O)O)CC5C=CCOCCCC(NC(=O)OC(C)(C)C)C(=O)N4C3)nccc2c1` (stereo not shown) [Compound 27, 14-tert-Butoxycarbonylamino-18-(6-methoxy-isoquinolin-1-yloxy)-2,15-dioxo-10-oxa-3,16-diaza-tricyclo[14.3.0.0^4,6]nonadec-7-ene-4-carboxylic acid], the 50% inhibitory concentration (IC50) lay within 50 to 500 nM.

Still in this assay, the particulars now being: NS3/4A BMS strain; activity range symbols.
Consider `CCC1(S(=O)(=O)NC(=O)C23CC2C=CCOCCCC(NC(=O)NC2CCCC2)C(=O)N2CC(Oc4nccc5cc(OC)ccc45)CC2C(=O)N3)CC1` (stereo not shown) [Compound 38], for which the half-inhibitory concentration (IC50) is below 50 nM.
`COc1ccc2c(OC3CC4C(=O)NC5(C(=O)NS(=O)(=O)C6CC6)CC5C=CCCCOC(C)C(NC(=O)OCC(C)(C)C)C(=O)N4C3)nccc2c1` (stereo not shown) [Compound 63]: the IC50 was below 50 nM.
The same measure, in the same setting: then `COc1ccc2c(OC3CC4C(=O)NC5(C(=O)NS(=O)(=O)C6(C)CC6)CC5C=CCCCSCC(NC(=O)OCC(C)(C)C)C(=O)N4C3)nccc2c1` (stereo not shown) [Compound 42], with below 50 nM.
Consider `CCC1(S(=O)(=O)NC(=O)C23CC2C=CCCCCCC(NC(=O)OC(C)(C)C)C(=O)N2CC(Oc4nccc5cc(OC)ccc45)CC2C(=O)N3)CC1` (stereo not shown) [Compound 54], for which the IC50 is below 50 nM.
Turning to `N[C@H]1CCCCC/C=C\[C@@H]2C[C@@]2(C(=O)NS(=O)(=O)C2CC2)NC(=O)[C@@H]2C[C@@H](Oc3nccc4ccccc34)CN2C1=O` [Compound 11, Cyclopropanesulfonic acid [14-amino-18-(isoquinolin-1-yloxy)-2,15-dioxo-3,16-diaza-tricyclo[14.3.0.0^4,6]nonadec-7-ene-4-carbonyl]-amide bis hydrochloride], the half-maximal inhibitory concentration (IC50) was below 50 nM.
`CCC1(S(=O)(=O)NC(=O)C23CC2C=CCCCOC(C)C(NC(=O)NC2CCCC2)C(=O)N2CC(Oc4nccc5cc(OC)ccc45)CC2C(=O)N3)CC1` (stereo not shown) [Compound 73]: the half-maximal inhibitory concentration (IC50) was below 50 nM.
For the molecule `COc1ccc2c(OC3CC4C(=O)NC5(C(=O)NS(=O)(=O)C6(C)CC6)CC5C=CCCCS(=O)(=O)CC(NC(=O)OC(C)(C)C)C(=O)N4C3)nccc2c1` (stereo not shown) [Compound 49], the 50% inhibitory concentration (IC50) is 50 to 500 nM.
Consider `CCC1(S(=O)(=O)NC(=O)C23CC2C=CCOCCCC(NC(=O)OC(C)(C)C)C(=O)N2CC(Oc4nccc5cc(OC)ccc45)CC2C(=O)N3)CC1` (stereo not shown) [Compound 30], for which the half-inhibitory concentration (IC50) is below 50 nM.
`COC(=O)N[C@H]1CCCCC/C=C\[C@@H]2C[C@@]2(C(=O)NS(=O)(=O)C2CC2)NC(=O)[C@@H]2C[C@@H](Oc3nccc4ccccc34)CN2C1=O` [Compound 12, [4-Cyclopropanesulfonylaminocarbonyl-18-(isoquinolin-1-yloxy)-2,15-dioxo-3,16-diaza-tricyclo[14.3.0.0^4,6]nonadec-7-en-14-yl]-carbamic acid methyl ester]: the IC50 is below 50 nM.
On to `COc1ccc2c(OC3CC4C(=O)NC5(C(=O)NS(=O)(=O)C6CC6)CC5C=CCCCSCC(NC(=O)OC(C)C)C(=O)N4C3)nccc2c1` (stereo not shown) [Compound 74], for which the IC50 is below 50 nM.
On to `CC1(OC(=O)N[C@H]2CCCCC/C=C\[C@@H]3C[C@@]3(C(=O)NS(=O)(=O)C3CC3)NC(=O)[C@@H]3C[C@@H](Oc4nccc5ccccc45)CN3C2=O)CCC1` [Compound 56, [(Z)-(1S,4R,14S,18R)-4-cyclopropanesulfonylaminocarbonyl-18-(isoquinolin-1-yloxy)-2,15-dioxo-3,16-diaza-tricyclo[14.3.0.0^4,6]nonadec-7-en-14-yl]-carbamic acid 1-methyl-cyclobutyl ester], for which the IC50 is below 50 nM.
Regarding `CCC1(S(=O)(=O)NC(=O)C23CC2C=CCCCOC(C)C(NC(=O)OCC(C)(C)C)C(=O)N2CC(Oc4nccc5cc(OC)ccc45)CC2C(=O)N3)CC1` (stereo not shown) [Compound 71], the IC50 was below 50 nM.
For the molecule `CCC1(S(=O)(=O)NC(=O)C23CC2C=CCOCCCC(NC(=O)OC(C)C)C(=O)N2CC(Oc4nccc5cc(OC)ccc45)CC2C(=O)N3)CC1` (stereo not shown) [Compound 37], the 50% inhibitory concentration (IC50) was below 50 nM.
As to `COc1ccc2c(OC3CC4C(=O)NC5(C(=O)NS(=O)(=O)C6CC6)CC5C=CCOCCCC(NC(=O)NC5CCCC5)C(=O)N4C3)nccc2c1` (stereo not shown) [Compound 33], the IC50 is below 50 nM.
For the molecule `COc1ccc2c(OC3C[C@H]4C(=O)N[C@]5(C(=O)NS(=O)(=O)C6CC6)C[C@H]5/C=C\CCCSC[C@H](NC(=O)OC(C)(C)C)C(=O)N4C3)nccc2c1` (stereo partly shown) [Compound 18B, [4-Cyclopropanesulfonylaminocarbonyl-18-(6-methoxy-isoquinolin-1-yloxy)-2,15-dioxo-12-thia-3,16-diaza-tricyclo[14.3.0.0^4,6]nonadec-7-en-14-yl]-carbamic acid tert-butyl ester], the half-maximal inhibitory concentration (IC50) is below 50 nM.
As to `COc1ccc2c(OC3CC4C(=O)NC5(C(=O)NS(=O)(=O)C6CC6)CC5C=CCCCOC(C)C(NC(=O)OC(C)C)C(=O)N4C3)nccc2c1` (stereo not shown) [Compound 64], the IC50 was below 50 nM.
Consider `CC(C)OC(=O)N[C@H]1CCCCC/C=C\[C@@H]2C[C@@]2(C(=O)NS(=O)(=O)C2CC2)NC(=O)[C@@H]2C[C@@H](Oc3nccc4ccccc34)CN2C1=O` [Compound 16, [4-Cyclopropanesulfonylaminocarbonyl-18-(isoquinolin-1-yloxy)-2,15-dioxo-3,16-diaza-tricyclo[14.3.0.0^4,6]nonadec-7-en-14-yl]-carbamic acid isopropyl ester], for which the IC50 was below 50 nM.
Turning to `O=C(NC1CCCCCC=CC2CC2(C(=O)NS(=O)(=O)C2CC2)NC(=O)C2CC(Oc3nccc4ccccc34)CN2C1=O)OC1CCCC1` (stereo not shown) [Compound 20], the 50% inhibitory concentration (IC50) is below 50 nM.
The same measure, in the same setting: then `CCC1(S(=O)(=O)NC(=O)C23CC2C=CCCCOC(C)C(NC(=O)OC(C)C)C(=O)N2CC(Oc4nccc5cc(OC)ccc45)CC2C(=O)N3)CC1` (stereo not shown) [Compound 72], with below 50 nM.
For `CC(C)(C)OC(=O)NC1CSCCCC=CC2CC2(C(=O)NS(=O)(=O)C2CC2)NC(=O)C2CC(Oc3nccc4c(Cl)cccc34)CN2C1=O` (stereo not shown) [Compound 78], the IC50 was below 50 nM.
Regarding `O=C(N[C@H]1CCCCC/C=C\[C@@H]2C[C@@]2(C(=O)NS(=O)(=O)C2CC2)NC(=O)[C@@H]2C[C@@H](Oc3nccc4ccccc34)CN2C1=O)OC1CCOCC1` [Compound 14, [4-Cyclopropanesulfonylaminocarbonyl-18-(isoquinolin-1-yloxy)-2,15-dioxo-3,16-diaza-tricyclo[14.3.0.0^4,6]nonadec-7-en-14-yl]-carbamic acid tetrahydro-pyran-4-yl ester], the IC50 is below 50 nM.
Regarding `COc1ccc2c(OC3CC4C(=O)NC5(C(=O)NS(=O)(=O)C6CC6)CC5C=CCOCCCC(NC(=O)OCC(C)(C)C)C(=O)N4C3)nccc2c1` (stereo not shown) [Compound 32], the IC50 was below 50 nM.
Consider `CC(C)(C)OC(=O)NC1CCCCCC=CC2CC2(C(=O)NS(=O)(=O)C2CC2)NC(=O)C2CC(Oc3nc(Cl)cc4ccccc34)CN2C1=O` (stereo not shown) [Compound 57], for which the IC50 is below 50 nM.
